# Measurements taken from ChEMBL document CHEMBL1201862, “PubChem BioAssay data set” (2004).
# Where “and” joins values, the source holds several entries; their conditions need not be identical. Equal values may be shown once. Calls of active or inactive are those of the source.
# How the values were obtained:
# Protein S100-A4 = Protein S100-A4 (Homo sapiens, UniProt P26447); experiment: S100A4-myosin IIA binding inhibitor potency, dose response, biochemical, fluorescence polarization, cherry-picked hits (AID 687001); type: functional
# [1] = biological target: T1, RNA-binding protein pos-1 (Caenorhabditis elegans, UniProt G5EF15); experiment: inhibitors of POS-1/mex-3 RNA binding, dose response, biochemical, fluorescence polarization (AID 1964);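 note: purified POS-1 fused to maltose binding protein made in E. coli; potency of compounds blocking POS-1 binding to fluorescent RNA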
# T1 sequence (G5EF15 whole entry): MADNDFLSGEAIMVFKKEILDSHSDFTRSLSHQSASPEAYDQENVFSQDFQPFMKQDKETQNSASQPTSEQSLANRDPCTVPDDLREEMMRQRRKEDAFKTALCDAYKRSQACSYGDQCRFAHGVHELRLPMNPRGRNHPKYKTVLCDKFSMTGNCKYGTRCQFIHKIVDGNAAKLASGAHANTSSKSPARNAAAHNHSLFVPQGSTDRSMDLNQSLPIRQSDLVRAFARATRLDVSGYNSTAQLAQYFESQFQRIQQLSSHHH
# [2] = biological target: T2, Zinc finger protein mex-5 (Caenorhabditis elegans, UniProt Q9XUB2); experiment: MEX-5/TCR-2 RNA interaction inhibitors, dose response, biochemical, C. elegans, fluorescence polarization (AID 1960)
# T2 sequence (Q9XUB2 whole entry): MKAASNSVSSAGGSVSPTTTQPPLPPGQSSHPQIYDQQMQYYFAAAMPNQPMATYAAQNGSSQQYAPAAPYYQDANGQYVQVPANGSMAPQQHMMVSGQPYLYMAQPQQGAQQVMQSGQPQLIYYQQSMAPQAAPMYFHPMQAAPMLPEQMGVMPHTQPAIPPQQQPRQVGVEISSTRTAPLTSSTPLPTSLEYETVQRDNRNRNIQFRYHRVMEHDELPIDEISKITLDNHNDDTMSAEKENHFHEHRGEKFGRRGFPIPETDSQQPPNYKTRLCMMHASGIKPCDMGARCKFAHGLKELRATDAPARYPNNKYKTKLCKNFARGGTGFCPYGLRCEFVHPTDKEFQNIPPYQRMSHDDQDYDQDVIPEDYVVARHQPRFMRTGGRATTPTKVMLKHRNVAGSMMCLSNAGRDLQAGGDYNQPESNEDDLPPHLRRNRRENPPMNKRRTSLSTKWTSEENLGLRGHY
# [3] = biological target: E3 ubiquitin-protein ligase XIAP (Homo sapiens, UniProt P98170); experiment: Counter Screen using XIAP-Bir3 for Chemical Antagonists of Bir1/2 domains of IAP-family anti-apoptotic proteins. [Related pubchem assays (depositor defined):AID1018, AID1449, AID1514, AID1638, AID1749, AID1750, AID488957, AID488963]
# Fibrinogen beta chain [4] = biological target: T3, Fibrinogen beta chain (Homo sapiens, UniProt P02675); experiment: Fluorescence polarization-based biochemical high throughput dose response assay to identify inhibitors that disrupt the binding of a cyclic peptide (Tn7) to the fibrin proteolytic product D-Dimer and fragment E complex [DD(E )].
# T3 sequence (P02675 whole entry): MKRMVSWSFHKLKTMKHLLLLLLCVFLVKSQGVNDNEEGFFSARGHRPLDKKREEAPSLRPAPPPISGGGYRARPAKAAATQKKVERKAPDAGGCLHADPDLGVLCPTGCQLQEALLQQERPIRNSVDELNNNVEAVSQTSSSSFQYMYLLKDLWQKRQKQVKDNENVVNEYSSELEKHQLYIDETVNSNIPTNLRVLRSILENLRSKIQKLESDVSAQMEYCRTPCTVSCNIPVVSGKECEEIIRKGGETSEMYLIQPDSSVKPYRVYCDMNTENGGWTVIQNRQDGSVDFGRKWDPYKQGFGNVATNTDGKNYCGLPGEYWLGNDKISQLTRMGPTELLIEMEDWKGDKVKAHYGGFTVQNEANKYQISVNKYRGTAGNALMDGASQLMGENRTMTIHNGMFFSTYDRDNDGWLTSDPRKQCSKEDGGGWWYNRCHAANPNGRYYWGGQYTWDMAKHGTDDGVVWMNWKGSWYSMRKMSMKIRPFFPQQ
# ORF 73 = ORF 73 (Human herpesvirus 8, UniProt O40947); experiment: inhibitors of C-LANA binding to LBS DNA, dose response, biochemical, fluorescence polarization, cherry-picked samples (AID 504725); design: species or system Human gammaherpesvirus 8;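 note: fluorescence polarization of a labeled DNA duplex reporting LANA DNA binding; potency is for inhibitors that block LANA binding to the DNA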
# Fibrinogen beta chain [5] = biological target: T3, Fibrinogen beta chain; experiment: Fluorescence polarization-based biochemical high throughput dose response assay to identify inhibitors that disrupt the binding of a cyclic peptide (Tn6) to the fibrin proteolytic product D-Dimer and fragment E complex [DD(E )].
# Keap1/Nrf2 = Keap1/Nrf2 (Homo sapiens, UniProt Q14145); experiment: Keap1-Nrf2 protein-protein interaction inhibitors, dose response, biochemical, fluorescence polarization, cherry-picked samples (AID 588683)
# [6] = biological target: UDP-galactopyranose mutase (Mycobacterium tuberculosis, UniProt P9WIQ1); experiment: Inhibitors of Mycobacterium tuberculosis UDP-galactopyranose mutase (UGM) enzyme Measured in Biochemical System Using Plate Reader - 2105-02_Inhibitor_Dose_CherryPick_Activity. [Related pubchem assays (depositor defined):AID504439]
# [7] = biological target: Kappa-type opioid receptor (Homo sapiens, UniProt P41145); experiment: SAR analysis of small molecule agonists of the kappa opioid receptor via a luminescent beta-arrestin assay - Set 3. [Related pubchem assays (depositor defined):AID1777, AID1785, AID1786, AID1966, AID2133, AID2136, AID2284, AID2500]; type: functional
# [8] = biological target: Dual specificity protein phosphatase 6 (Rattus norvegicus, UniProt Q64346); type: functional;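 note: confirmatory in vitro dose-response testing of MKP-3 inhibition; recombinant His-tagged MKP-3 made in E. coli BL21 with OMFP substrate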
# [9] = biological target: Tyrosine-protein phosphatase non-receptor type 7 (Homo sapiens, UniProt P35236); experiment: redox-dependent HePTP inhibition, mechanism study, biochemical, fluorescence (AID 2068); type: functional
# Cytochrome P450 1A2 = biological target: T4, Cytochrome P450 1A2 (Homo sapiens, UniProt P05177);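 note: PubChem cytochrome P450 panel assay, CYP1A2 panel member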
# T4 sequence (P05177 whole entry): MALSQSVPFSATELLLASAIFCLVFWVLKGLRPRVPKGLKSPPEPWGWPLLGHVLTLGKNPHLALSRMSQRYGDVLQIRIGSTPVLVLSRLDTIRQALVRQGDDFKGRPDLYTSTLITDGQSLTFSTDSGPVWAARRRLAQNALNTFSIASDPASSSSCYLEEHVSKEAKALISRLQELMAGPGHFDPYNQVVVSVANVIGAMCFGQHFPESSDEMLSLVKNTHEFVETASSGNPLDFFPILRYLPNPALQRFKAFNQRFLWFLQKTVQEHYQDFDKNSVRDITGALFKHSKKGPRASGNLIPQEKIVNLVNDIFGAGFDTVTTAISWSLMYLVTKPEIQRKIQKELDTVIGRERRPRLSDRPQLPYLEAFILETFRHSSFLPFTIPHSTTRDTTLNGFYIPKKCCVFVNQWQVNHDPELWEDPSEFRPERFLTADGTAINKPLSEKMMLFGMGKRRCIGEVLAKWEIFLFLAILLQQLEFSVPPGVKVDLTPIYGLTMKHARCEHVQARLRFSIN
# [10] = biological target: T5, Heat shock factor protein 1 (Mus musculus, UniProt P38532); experiment: inhibition of MG132-induced HSE-luciferase signal, confirmation, cell-based, NIH3T3, luminescence, dose retest (AID 2382); type: functional;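 note: NIH3T3 fibroblasts with HSF1-driven luciferase reporter stressed by proteasome inhibitor MG132; luminescence from HSF1-driven luciferase expression after 8 hours of MG132 stress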
# T5 sequence (P38532 whole entry): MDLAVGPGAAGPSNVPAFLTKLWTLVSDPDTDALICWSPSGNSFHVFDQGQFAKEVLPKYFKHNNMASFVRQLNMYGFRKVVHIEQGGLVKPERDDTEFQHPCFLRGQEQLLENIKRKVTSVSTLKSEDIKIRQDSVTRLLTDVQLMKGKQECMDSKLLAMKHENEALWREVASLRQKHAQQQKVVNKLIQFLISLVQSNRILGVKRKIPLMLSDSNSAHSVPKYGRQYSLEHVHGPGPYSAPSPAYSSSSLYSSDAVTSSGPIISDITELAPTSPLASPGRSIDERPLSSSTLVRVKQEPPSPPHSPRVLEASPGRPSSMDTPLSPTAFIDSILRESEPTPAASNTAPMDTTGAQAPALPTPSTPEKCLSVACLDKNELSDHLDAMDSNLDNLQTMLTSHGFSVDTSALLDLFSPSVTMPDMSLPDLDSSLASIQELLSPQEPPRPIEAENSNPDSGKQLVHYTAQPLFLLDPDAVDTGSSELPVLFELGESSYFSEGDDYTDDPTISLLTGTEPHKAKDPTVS
# Cytochrome P450 2D6 = Cytochrome P450 2D6 (Homo sapiens, UniProt P10635);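 note: CYP2D6 member of a cytochrome P450 panel assay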
# Chain of Cytochrome P450 2D6 (P10635 whole entry): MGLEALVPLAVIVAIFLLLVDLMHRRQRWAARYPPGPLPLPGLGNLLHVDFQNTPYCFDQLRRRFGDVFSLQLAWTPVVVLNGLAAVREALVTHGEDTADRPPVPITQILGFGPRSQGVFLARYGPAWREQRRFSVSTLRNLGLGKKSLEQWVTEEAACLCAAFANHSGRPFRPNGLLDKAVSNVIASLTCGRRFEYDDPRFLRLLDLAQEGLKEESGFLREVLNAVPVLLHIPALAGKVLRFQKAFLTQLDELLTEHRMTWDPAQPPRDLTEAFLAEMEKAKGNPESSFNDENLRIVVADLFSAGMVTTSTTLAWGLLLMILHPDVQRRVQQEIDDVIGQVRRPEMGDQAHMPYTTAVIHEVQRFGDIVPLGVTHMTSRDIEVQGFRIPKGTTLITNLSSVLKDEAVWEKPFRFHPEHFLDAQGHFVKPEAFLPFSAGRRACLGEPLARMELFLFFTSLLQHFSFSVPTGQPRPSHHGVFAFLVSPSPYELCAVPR
# Chain of E3 ubiquitin-protein ligase XIAP (P98170 whole entry, the tested form may be a part): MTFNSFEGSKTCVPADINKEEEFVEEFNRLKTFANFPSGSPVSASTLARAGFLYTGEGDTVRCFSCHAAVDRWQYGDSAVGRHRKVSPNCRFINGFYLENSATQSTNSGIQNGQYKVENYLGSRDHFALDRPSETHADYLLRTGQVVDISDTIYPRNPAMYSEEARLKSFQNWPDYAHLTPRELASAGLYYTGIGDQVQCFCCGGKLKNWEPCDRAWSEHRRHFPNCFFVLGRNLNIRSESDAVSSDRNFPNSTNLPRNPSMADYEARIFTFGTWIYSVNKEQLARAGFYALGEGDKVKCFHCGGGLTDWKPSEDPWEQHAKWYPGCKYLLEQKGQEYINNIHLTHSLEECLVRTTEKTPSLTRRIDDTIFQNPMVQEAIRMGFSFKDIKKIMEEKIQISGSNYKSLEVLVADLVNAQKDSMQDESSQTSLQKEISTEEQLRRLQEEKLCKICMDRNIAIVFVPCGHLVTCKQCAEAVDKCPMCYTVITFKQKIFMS
# Chain of UDP-galactopyranose mutase (P9WIQ1 whole entry): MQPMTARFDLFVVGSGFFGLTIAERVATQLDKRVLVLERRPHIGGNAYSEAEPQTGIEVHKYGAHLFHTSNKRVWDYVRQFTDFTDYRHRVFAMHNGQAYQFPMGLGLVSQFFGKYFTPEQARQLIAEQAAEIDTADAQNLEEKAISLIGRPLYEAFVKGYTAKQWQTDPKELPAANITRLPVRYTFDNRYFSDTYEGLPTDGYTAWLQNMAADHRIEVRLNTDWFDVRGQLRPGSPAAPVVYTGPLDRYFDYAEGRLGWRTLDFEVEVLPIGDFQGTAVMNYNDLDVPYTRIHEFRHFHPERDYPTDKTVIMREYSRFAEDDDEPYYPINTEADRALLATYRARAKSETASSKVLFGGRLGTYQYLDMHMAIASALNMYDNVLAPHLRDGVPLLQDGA
# Chain of Protein S100-A4 (P26447 whole entry, the tested form may be a part): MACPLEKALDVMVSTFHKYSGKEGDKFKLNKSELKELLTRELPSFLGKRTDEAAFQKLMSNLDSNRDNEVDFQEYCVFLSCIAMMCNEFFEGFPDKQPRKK
# Chain of Kappa-type opioid receptor (P41145 whole entry): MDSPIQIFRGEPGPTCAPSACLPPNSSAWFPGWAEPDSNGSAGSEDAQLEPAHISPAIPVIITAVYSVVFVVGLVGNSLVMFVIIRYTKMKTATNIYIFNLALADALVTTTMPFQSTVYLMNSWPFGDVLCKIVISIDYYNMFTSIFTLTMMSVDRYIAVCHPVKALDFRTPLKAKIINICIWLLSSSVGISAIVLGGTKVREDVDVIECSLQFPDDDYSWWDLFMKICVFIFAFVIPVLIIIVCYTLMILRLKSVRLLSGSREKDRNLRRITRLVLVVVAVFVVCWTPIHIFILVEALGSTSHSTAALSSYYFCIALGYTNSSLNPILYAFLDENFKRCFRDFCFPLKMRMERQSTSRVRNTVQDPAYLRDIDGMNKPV
# Chain of Keap1/Nrf2 (Q16236 whole entry): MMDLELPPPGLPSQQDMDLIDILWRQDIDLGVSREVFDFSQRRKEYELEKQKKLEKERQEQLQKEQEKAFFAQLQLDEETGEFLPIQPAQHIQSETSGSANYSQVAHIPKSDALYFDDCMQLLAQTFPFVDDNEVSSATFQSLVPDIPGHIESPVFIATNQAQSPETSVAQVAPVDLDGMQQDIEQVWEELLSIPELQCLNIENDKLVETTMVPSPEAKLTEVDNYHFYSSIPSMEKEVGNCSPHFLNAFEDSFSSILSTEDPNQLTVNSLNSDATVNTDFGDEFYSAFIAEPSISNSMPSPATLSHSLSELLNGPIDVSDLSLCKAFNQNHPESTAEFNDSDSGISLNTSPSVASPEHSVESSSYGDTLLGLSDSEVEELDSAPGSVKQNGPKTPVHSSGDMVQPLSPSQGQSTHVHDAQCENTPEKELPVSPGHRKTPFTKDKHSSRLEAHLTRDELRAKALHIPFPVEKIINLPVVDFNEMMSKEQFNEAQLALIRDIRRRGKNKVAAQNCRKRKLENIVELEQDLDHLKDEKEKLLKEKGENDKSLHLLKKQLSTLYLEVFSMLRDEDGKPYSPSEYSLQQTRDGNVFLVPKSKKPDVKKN
# Chain of Keap1/Nrf2 (Q14145 whole entry): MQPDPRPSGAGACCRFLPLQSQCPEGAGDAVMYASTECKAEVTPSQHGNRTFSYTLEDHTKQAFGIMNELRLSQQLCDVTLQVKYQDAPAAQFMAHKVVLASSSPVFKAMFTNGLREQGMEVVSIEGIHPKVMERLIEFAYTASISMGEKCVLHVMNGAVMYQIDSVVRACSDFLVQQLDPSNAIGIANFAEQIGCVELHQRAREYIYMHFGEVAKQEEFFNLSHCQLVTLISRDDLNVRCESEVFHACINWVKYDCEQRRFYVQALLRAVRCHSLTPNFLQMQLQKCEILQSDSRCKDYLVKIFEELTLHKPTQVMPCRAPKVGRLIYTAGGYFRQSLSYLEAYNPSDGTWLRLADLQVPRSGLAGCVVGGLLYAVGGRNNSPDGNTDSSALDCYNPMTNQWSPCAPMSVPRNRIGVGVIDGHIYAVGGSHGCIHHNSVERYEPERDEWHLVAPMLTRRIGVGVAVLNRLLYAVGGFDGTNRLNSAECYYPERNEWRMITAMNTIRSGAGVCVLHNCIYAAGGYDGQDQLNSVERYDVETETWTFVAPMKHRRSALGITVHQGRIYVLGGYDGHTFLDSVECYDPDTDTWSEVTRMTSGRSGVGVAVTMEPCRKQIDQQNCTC
# Chain of Tyrosine-protein phosphatase non-receptor type 7 (P35236 whole entry): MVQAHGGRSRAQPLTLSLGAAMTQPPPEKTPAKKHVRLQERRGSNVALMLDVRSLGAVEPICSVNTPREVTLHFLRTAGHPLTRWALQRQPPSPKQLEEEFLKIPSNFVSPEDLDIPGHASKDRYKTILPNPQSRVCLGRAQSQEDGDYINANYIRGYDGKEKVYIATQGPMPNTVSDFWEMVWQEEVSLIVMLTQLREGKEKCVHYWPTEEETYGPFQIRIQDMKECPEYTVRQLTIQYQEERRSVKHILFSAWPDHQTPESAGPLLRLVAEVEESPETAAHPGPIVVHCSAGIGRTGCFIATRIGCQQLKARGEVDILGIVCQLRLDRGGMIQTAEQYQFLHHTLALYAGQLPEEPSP
# Chain of ORF 73 (O40947 whole entry, the tested form may be a part): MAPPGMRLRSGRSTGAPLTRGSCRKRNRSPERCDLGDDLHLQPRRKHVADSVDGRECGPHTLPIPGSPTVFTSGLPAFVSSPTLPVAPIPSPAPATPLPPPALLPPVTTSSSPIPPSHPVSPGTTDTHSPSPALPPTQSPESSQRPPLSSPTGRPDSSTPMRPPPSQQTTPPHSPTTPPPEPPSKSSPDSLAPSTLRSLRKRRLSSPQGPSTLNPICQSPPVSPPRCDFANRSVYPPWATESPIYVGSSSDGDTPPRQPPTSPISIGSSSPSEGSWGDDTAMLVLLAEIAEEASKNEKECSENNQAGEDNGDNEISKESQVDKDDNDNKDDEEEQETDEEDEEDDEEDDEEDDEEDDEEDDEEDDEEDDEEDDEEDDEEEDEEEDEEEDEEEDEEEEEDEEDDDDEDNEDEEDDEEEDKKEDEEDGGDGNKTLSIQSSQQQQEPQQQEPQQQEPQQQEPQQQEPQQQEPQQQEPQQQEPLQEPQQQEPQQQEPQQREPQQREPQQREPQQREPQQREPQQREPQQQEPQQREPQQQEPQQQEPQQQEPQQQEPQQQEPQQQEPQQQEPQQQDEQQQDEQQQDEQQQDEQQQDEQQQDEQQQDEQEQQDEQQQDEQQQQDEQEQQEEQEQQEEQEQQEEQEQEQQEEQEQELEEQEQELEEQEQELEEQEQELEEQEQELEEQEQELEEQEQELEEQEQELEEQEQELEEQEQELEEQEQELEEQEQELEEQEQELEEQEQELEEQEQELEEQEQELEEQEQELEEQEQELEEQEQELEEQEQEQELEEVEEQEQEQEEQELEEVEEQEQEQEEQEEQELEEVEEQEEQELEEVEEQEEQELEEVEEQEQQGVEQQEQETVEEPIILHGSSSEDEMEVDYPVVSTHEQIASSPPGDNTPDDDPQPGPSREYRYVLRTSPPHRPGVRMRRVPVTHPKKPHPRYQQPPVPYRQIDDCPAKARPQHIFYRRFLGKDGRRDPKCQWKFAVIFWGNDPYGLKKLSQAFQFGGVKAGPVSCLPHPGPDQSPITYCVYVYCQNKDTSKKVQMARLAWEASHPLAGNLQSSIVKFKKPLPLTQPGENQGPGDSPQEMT
# Chain of Dual specificity protein phosphatase 6 (Q64346 whole entry): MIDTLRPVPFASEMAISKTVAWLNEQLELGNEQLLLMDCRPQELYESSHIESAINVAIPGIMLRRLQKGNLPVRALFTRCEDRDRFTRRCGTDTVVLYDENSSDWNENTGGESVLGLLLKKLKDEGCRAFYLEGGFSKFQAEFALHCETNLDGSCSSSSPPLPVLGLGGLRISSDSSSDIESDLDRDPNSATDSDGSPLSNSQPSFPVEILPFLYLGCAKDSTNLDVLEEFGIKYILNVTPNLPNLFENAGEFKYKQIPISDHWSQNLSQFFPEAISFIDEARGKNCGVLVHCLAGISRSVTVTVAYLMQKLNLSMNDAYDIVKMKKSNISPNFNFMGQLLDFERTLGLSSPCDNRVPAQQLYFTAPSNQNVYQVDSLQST
structure (smiles),measurement,setting,value
CN1C(=O)NC(c2ccccc2[N+](=O)[O-])C2=C1CCCC2=O (stereo not given),AC50,Protein S100-A4,1.41 µM (active)
same,EC50,[1],8.8 µM (active)
same,EC50,[2],7.58 µM (inconclusive)
same,IC50,[3],> 20 µM (inactive)
same,IC50,Fibrinogen beta chain [4],> 83.3 µM (inactive)
same,AC50,ORF 73,24.9 µM (active)
same,IC50,Fibrinogen beta chain [5],11.3 µM (inactive)
same,AC50,Keap1/Nrf2,44.5 µM (active)
same,AC50,[6],54.3 µM (active)
CCCCN(Cc1cc2cc(Cl)ccc2[nH]c1=O)C(=O)c1ccccn1,EC50,[7],1.87 µM (active)
COc1cc(C(=S)NCc2ccc(F)c(C)c2)ccc1O,IC50,[8],> 100 µM (inactive)
same,IC50,[9],4.33 µM (active)
Cc1ccc(N(CC2=NCCN2)c2cccc(O)c2)cc1 [PHENTOLAMINE],AC50,Cytochrome P450 1A2,inactive
same,EC50,[10],> 195 µM (not active)
same,AC50,Cytochrome P450 2D6,794 nM (active) and 1.12 µM (active)
